Columns and labels:
rats = assay: chronic toxicity in rats; assay type: in vivo, rat; details: 350 mg/kg.day, 6 months; hematological, biochemical, anatomy-pathological
[1] = test system: canine seborrheic dermatitis; assay: clinical trial on canine seborrheic dermatitis; assay type: in vivo, dog; design: key to Evolution, etiology idiopathic / Evolution, etiology demodex / Evolution, etiology follicular cyst / Evolution, etiology pyoderma / Evolution, etiology dermatomycosis / Evolution, etiology allergic to fleas / Evolution, etiology hypothyroidism / Evolution, etiology leishmaniosis: +++: very good response, clinically cured; ++: good response, marked lowering in the clinical signs; +: moderate response, improvement; -: negative response or no apparent improvement; key to Evolution, etiology dermatophytes: +++: very good response, total recovery; ++: good response, functionability recovery; +: moderate response, improvement; -: negative response or no apparent improvement
Description: The animals had been diagnosed to suffer from seborrheic dermatitis, and the diagnosis was confirmed by a biopsy. The treatment consisted of a weekly bath with a 2% Bobel-24 shampoo and evaluation of the treatment after 15 days. The efficiency of the treatment was analyzed evaluating the following therapeutic symptoms; removal of scabs and scales, greasiness reduction, sheborrheic odor reduction, relieve of the pruritus, and antiinflammatory effect. […] In view of the results the following conclusions were reached: […]

[2] = acute toxicity in Sprague-Dawley rats; details: rat, in vivo, po
tendonitis = assay: treatment of horses with tendonitis; assay type: in vivo, horse; details: 15 mg/day intraarticular infiltration
Description: Twenty five horses suffering from tendonitis, with claudication of the corresponding tendon, were treated with 15 mg/day via intraarticular infiltration of Bobel-24.

canine arthrosis = assay: clinical trial on canine arthrosis; assay type: in vivo, dog; design: key: +++: very good response, total recovery; ++: good response, functionability recovery; +: moderate response, improvement; -: negative response or no apparent improvement; details: 4 mg/kg day orally, 45 days
Description: After the diagnosis, each animal was treated with Bobel capsules during 45 days, with a follow up every 15 days. Blood, synovial liquid and urine samples were taken at the beginning and at the end of the treatment in order to perform the following tests: Synovial liquid analysis (cytology, cytokines 1,6,8 and TNF); LTB4; LTC4; PGE2; hematic count and leukocyte content; standard serum biochemistry; urine sediment; Rose-Wealer test; and radiology control. The methodology for clinical validation involved applying evaluating uniform parameters and classifying the results according to the following notations: (+++)=very good response, total recovery; (++)=good response, functionability recovery; (+)=moderate response, improvement; (-)=negative response or no apparent improvement.

[3] = solubility in aqueous medium; assay type: physicochemical; details: in words
Description: Due to the insolubility of Bobel-24 in aqueous medium, it was previously dissolved in a 50% solution of lysine. An anionic sulfonated detergent was used as foaming agent, containing 10-15% tegobetaine, 20-30% texapone N-40, and water. A 2% shampoo was prepared with the following composition: 2 g Bobel-24, 12 ml of 50% aqueous solution of lysine, 48 ml of water, 40 ml of the anionic sulfonated detergent.

dyspnea = assay: treatment of race horses with dyspnea; assay type: in vivo, horse; details: eleven race horses, intravenous 50 mg/day, one week
Description: Eleven race horses manifesting dyspnea of variable degree, accompanied of great sensibility in the movements and, in the majority of the cases respiratory anxiety, coughs and mucous-purulent nasal flux, were treated with an intravenous dose of Bobel-24 of 50 mg/day during one week.

[4] = test system: lactatedehydrogenase (LDH); assay: liberation of lactatedehydrogenase (LDH) into the medium; details: check for cellular lysis
Source text: In order to show the 5-LO inhibiting activity of the products of the present invention, a specific test based on human polymorphonuclear leukocytes is chosen.

herpes simplex [5] = assay: test for antiviral activity in vitro
Source text: (§1) The 2,4-disubstituted phenol derivatives of the present invention are anti-herpetic agents in vivo, since they eliminate the symptoms of patients suffering from different types of herpes simplex (genital herpes, herpes of mouth and lips, recurrent herpes), and of patients suffering from herpes zoster. There is no relapse after leaving the treatment. The products are active both intramuscularly and topically, the first via being preferred.
(§2) A total of 25 patients with symptoms of different herpes simplex (genital, buccal or reincident) were treated with 15 mg/day of Bobel-24, intramuscularly, during a month, with the following results: with the ten patients of genital herpes simplex, the results was excellent in 7 cases, good in 2 and regular in 1; of the twelve with buccal herpes simplex it was excellent in 9 cases, good in 2 and regular in 1; of the 3 with reincident herpes it was excellent in 2 of the cases and good in 1. […] The case of genital herpes which resulted "regular" was an obese and diabetic […], and although there was an improvement there was also reincidency. Independently an test for antiviral activity in vitro resulted negative.

herpes zoster = assay: in vivo activity in patients with herpes zoster; design: species or system human (patients); details: of 21 patients; 15 mg/day intramuscular injection, a month
Source text: as §1
A total of 21 patients with clear symptoms of herpes zoster were treated with 15 mg/day of Bobel-24, via intramuscular injection, during a month. The results concerning the disappearance of the symptoms were the following: excellent in 18 cases, good in 2 cases, and regular in 1 case.

herpes simplex [6] = assay: in vivo activity in patients with herpes simplex; design: species or system human (patients); details: 15 mg/day intramuscularly, a month
Source text: as §1, §2

cyclooxygenase = details: in words; cited from earlier work
[7] = test system: rheumatoid arthritis, hip dysplasia, equine cauda, deforming spondolitis or coxarthrosis; assay: treatment of dogs with articular or musculoskeletal diseases; assay type: in vivo, dog; details: twenty dogs, oral 1-3 mg/kg.day
[8] = weekly bath 2% shampoo, 15 days, Scotty T 4 years

Oc1c(I)cc(I)cc1I [Bobel-24, 2,4,6-triiodophenol]
chronic toxicity in rats (rats): not observed | secondary or adverse effects (mucosal or skin irritation, unpleasant smells) ([1]; 2% shampoo, topical): absence of secondary or adverse effects | scabs, greasiness, seborrheic odor, erithema and pruritus ([1]; 2% shampoo, all animals except one with dermatophytosis): a lowering of the scabs, disappearance of the greasiness and the seborrheic odor, disappearance of the erithema and the pruritus was observed | result in idiopathic seborrheic dermatitis ([1]; 2% shampoo, improvement similar to oral therapy of corticoids): excellent | result in secondary seborrheic dermatitis ([1]; Bobel-24 shampoo): the shampoo improves the aspect of the fur, but does not combat the ethiological agent responsible for the disease | Evolution, etiology hypothyroidism ([1]; weekly bath 2% shampoo, 15 days, Cocker A 9 years): ++ | Evolution, etiology leishmaniosis ([1]; weekly bath 2% shampoo, 15 days, Cocker S 8 years): ++ | Evolution, etiology demodex ([1]; weekly bath 2% shampoo, 15 days, Mongrel 4 years): ++ | Evolution, etiology allergic to fleas [1, 8]: ++ | Evolution, etiology dermatophytes [1, 8]: - | Evolution, etiology follicular cyst ([1]; weekly bath 2% shampoo, 15 days, Yorkshire 7 years): ++ | Evolution, etiology idiopathic ([1]; weekly bath 2% shampoo, 15 days, b367 Cocker A 13, b393 Cocker S 15, b394 Cocker S 12 years): +++ | Evolution, etiology pyoderma ([1]; weekly bath 2% shampoo, 15 days, b373 Pekinese 2, b396 German shepherd 10 years): ++ | Evolution, etiology dermatomycosis ([1]; weekly bath 2% shampoo, 15 days, b381 Schnauzer 3, b387 German shepherd 1 year): ++ | LD50 [2]: 1500 mg/kg | outcome in the rest of the cases (tendonitis; horses, 15 days): the claudication disappeared within the same period of time, but an inflammatory ring persisted around the tendon | cases in which the process was totally reduced in 15 days (tendonitis; of twenty five horses): 17 cases | Evolution, spondolytis (canine arthrosis; Doge 3 years): +++ | Evolution, broken muscle (canine arthrosis; German shepherd 2 years): + | Evolution, generalized arthrosis (canine arthrosis; German shepherd 10 years): ++ | Evolution, rotular arthrosis (canine arthrosis; Mongrel 14 years): ++ | Evolution, degenerative arthrosis (canine arthrosis; Poodle 11 years): +++ | Evolution, broken crossed ligament (canine arthrosis; Poodle 15 years): + | Evolution, equine cauda (canine arthrosis; b309 Mastif 11 years, b317 Mongrel 13 years): +++ | Evolution, arthrosis (canine arthrosis; b312 Rottwailer 1 year, b322 German shepherd 9 years): +++ | solubility in aqueous medium [3]: insolubility | horses suffering relapse (dyspnea): None of the horses suffered relapse | improvement (dyspnea): The improvement was quite high | time to disappearance of all the symptoms (dyspnea): ≤ 9 days | time to reincorporation to training, without any sequel (dyspnea): 21 days | LDH liberation into the medium [4]: cannot be attributed to cellular lysis | antiviral activity in vitro (herpes simplex [5]): negative | cases with excellent result, herpes zoster (herpes zoster): 18 cases | cases with good result, herpes zoster (herpes zoster): 2 cases | cases with regular result, herpes zoster (herpes zoster): 1 cases | disappearance of the symptoms, herpes simplex overall (herpes simplex [6]; 25 patients): clear and generalized disappearance of the symptoms | cases with excellent result, reincident herpes (herpes simplex [6]; of 3 patients): 2 cases | cases with good result, reincident herpes (herpes simplex [6]; of 3 patients): 1 cases | cases with excellent result, genital herpes simplex (herpes simplex [6]; of ten patients): 7 cases | cases with good result, genital herpes simplex (herpes simplex [6]; of ten patients): 2 cases | cases with regular result, genital herpes simplex (herpes simplex [6]; of ten patients, obese and diabetic patient, reincidency): 1 cases | cases with excellent result, buccal herpes simplex (herpes simplex [6]; of twelve patients): 9 cases | cases with good result, buccal herpes simplex (herpes simplex [6]; of twelve patients): 2 cases | cases with regular result, buccal herpes simplex (herpes simplex [6]; of twelve patients): 1 cases | cyclooxygenase inhibiting activity (cyclooxygenase): some cyclooxygenase inhibiting activity | response [7]: very good response within 1 or 2 weeks

From US5985937A, “Use of 2,4-distributed phenol derivatives as 5-lipoxygenase inhibitors” (priority 1994, dated 1999)
